A melting point compilation (Tetko et al.; mined from patent text by program, amines drawn as free bases though some values may be those of a salt)

| melting point | SMILES |
| --- | --- |
| 62 to 63 °C | CCOC(=O)CC(NC(=O)c1ccccc1)C(=O)c1ccsc1 (stereo not drawn) |
| 90 to 93 °C | COC(=O)c1cc(OC)nc(C)n1 |
| 103 to 105 °C | CC(C)NS(=O)(=O)c1ccc(N2CCC(=O)CC2)cc1 |
| 170 to 171 °C | Cc1nccc(N)c1N |
| 185 °C | N#CC(=Cc1ccc2[nH]ccc2c1)C(=O)c1ccc(O)c(O)c1 |
| 78 to 84.5 °C | CC1(C)CCC(C)(C)c2cc(CCc3ncccn3)c(C=O)cc21 |
| 159 to 163 °C | O=C(O)C(Cc1ccccc1)Cn1ccnc1 (racemic) |
| 281 to 283 °C | O=c1[nH]c2ncc(-c3ccc(-c4n[nH]c(CN5CCOCC5)n4)cc3)nc2n1CC1CCOCC1 |
| 121 to 122 °C | Cc1cc2c(c(C)c1NC(=O)OC(C)(C)C)CCO2 |
| 204 to 206 °C | Cc1cccnc1NC(=O)Nc1cccc2c1C1CC(O)CCN1C2=O (stereo not drawn) |
| 82 to 85 °C | CCOC(=O)C1CCc2ccc(N)c(C)c2O1 (stereo not drawn) |
| 90.8 to 92.6 °C | CCC(C)COC(=O)c1ccc(OC(=O)c2ccc(O)cc2)cc1 (stereo not drawn) |
| 116 to 118 °C | CCOC(=O)c1cc2oc3c(n2n1)CCOC3 |
| 184 to 185 °C | CCCCc1nc2c(N)nc3cccnc3c2n1CCNC(=O)C(CC(C)C)NC(=O)OC(C)(C)C (stereo not drawn) |
| 224 to 226 °C | Oc1ccc(-c2ccc(O)c3cc(O)c(O)cc23)cc1O |
| 265 to 267 °C | O=C1NC(=O)c2c1cc1ccc3c(c1c2-c1ccc(OCc2ccccc2)cc1)OCO3 |
| 130 to 133 °C | CC(=O)NC[C@H]1CN(c2ccc3c(c2)CC(C)N3C(=O)CO)C(=O)O1 (stereo partly drawn) |
| 147 to 148 °C | Cn1c(Cc2cccc(C(F)(F)F)c2)nc2c(-c3cccc(C(=O)NCCO)c3)cccc21 |
| 67 to 69 °C | CCOC(=O)CN1CCN(C(=O)OC(C)(C)C)CC1 |
| 256 to 258 °C | O=c1[nH]c2ncc(-c3ccc(O)cc3)nc2n1CC1CCCO1 (stereo not drawn) |
| 103 to 105 °C | COC(=O)C(=O)Oc1cc(-n2c(=O)cc(C(F)(F)F)n(C)c2=O)c(F)cc1Cl |
| 95 to 96 °C | O=C(NCCc1ccccc1)c1ccc(Cl)nc1 |
| 102 to 104 °C | CCCCCCCCCCCCCCCCCCOc1ccc(C(=O)O)c(OCCCOc2ccc(OCc3ccccc3)cc2)c1 |
| 210 to 211 °C | C1=Nc2cc3c(cc2=C1)N=c1ccccc1=3 |

| melting point | SMILES |
| --- | --- |
| 188 to 190 °C | CSc1cccc2c1Sc1ccc(O)cc1N2 |
| 115 °C | CCCCOc1ccc(-c2ccc([C@H]3CC[C@H](CCC)CC3)c(C#N)c2C#N)cc1 |
| 155 to 157 °C | CCCCc1nc(C(O)C(C)C)c(C(N)=O)n1Cc1ccc(-c2ccccc2-c2nnn[nH]2)cc1 (stereo not drawn) |
| 190 to 192 °C | CC(C(N)=O)c1ccc2c(c1)C(=O)Cc1cccnc1S2 (stereo not drawn) |
| 193 to 195 °C | CCOC(=O)C1CCC(c2ccc(OCC(=O)O)c(Cl)c2Cl)=CC1=O (stereo not drawn) |
| 174 to 177 °C | Cc1[nH]c2ccc(/C=C/C(=O)OCc3ccccc3)cc2c1CN(C)C |
| 94 to 96 °C | CCOC(=O)c1cc(C(=O)OC)c(=O)oc1C |
| 160 to 164 °C | Cc1ccsc1C(Cc1ccccc1NCN1C(=O)CCC1=O)N(C)C=O (stereo not drawn) |
| 262 to 264 °C | Cn1cc(C(=O)C(=O)NC2=CC(=O)OC2)c2ccccc21 |
| 255 to 256 °C | O=C1Nc2cc(Cl)ccc2Nc2ccsc21 |
| 190 to 192 °C | CC(C)N1CC(=O)N(c2ccc(O)cc2F)C1=O |
| 220 to 221 °C | CC(C)c1n[nH]c2c(NCc3cccc(O)c3)ncnc12 |
| 148 to 160 °C | CN(C)CCCNCc1ccc(-c2cc3ncnc(Nc4ccc5[nH]ccc5c4)c3s2)cc1 |
| 64 to 65 °C | O=Cc1csc(-c2ccccc2)c1 |
| 110 to 112 °C | C=CC(O)(c1cccnc1)C(O)c1ccccc1Cl (stereo not drawn) |
| 140 °C | CCOC(=O)N1CCC(N(Cc2ccccc2)C(=S)Nc2ccccc2[N+](=O)[O-])CC1 |
| 130 to 133 °C | CC(=O)c1cccc(NC(=O)C(C)(C)C)c1 |
| 150 to 152 °C | CC(C)(C)ON=C1CC(c2ccc(S(C)(=O)=O)cc2)=C1c1ccccc1 |
| 65 to 67 °C | CCOCn1c(Br)c(Br)c(C#N)c1C(F)(F)F |
| 158 °C | O=C(NC(=Cc1ccccc1)c1cccs1)C(F)(F)F |
| > 200 °C | NC(=O)c1cc(-c2ccc(Cl)cc2)[nH]c1Cl |
| 207 to 208 °C | CCCCN1C(=O)CN2C(=O)CN(c3ccc(C(C)C)cc3Br)c3nc(C)nc1c32 |
| 100 to 102 °C | CCCCCNC(=O)c1ccc(N2CCC(N3C(=O)C(F)(F)c4ccccc43)CC2)nn1 |
| 229 to 230 °C | O=C(Nc1ccccc1)c1cc(Br)ccc1O |

| melting point | SMILES |
| --- | --- |
| 227 to 228 °C | COc1ccc2c(c1)C(=O)c1c-2c(Cl)nc2ccccc12 |
| 64 to 65 °C | FC(F)(F)c1cc(Br)c(C(F)(F)F)cc1Br |
| 66.5 to 67.5 °C | CSc1ccc2ccc3ccccc3c(=O)c2c1 |
| 150 to 152 °C | COc1c(C)c(N2CCN(c3ccc(C)cc3)CC2)c(C)c2c1OC(C)(C)C2 |
| 138 to 158 °C | O=C(CCCCCCCCC(=O)OC1CC(c2ccccc2)N(O)C(c2ccccc2)C1)OC1CC(c2ccccc2)N(O)C(c2ccccc2)C1 (stereo not drawn) |
| 196 to 198 °C | Oc1ccc(C2=NCCCO2)cc1 |
| 209 to 210 °C | Oc1c(C23CC4CC(CC(C4)C2)C3)ccc2ccccc12 |
| 274 to 275 °C | Cc1oc(-c2ccccc2)nc1C=Cc1ccc(/C=C/C=C2/OC(=O)NC2=O)cc1 |
| 78 to 87 °C | O=C(O)CCCC/C=C(\c1ccc(-c2nc(C(=O)N[C@@H]3C[C@H]3c3ccccc3)co2)cc1)c1cccnc1 |
| 79 to 80 °C | c1ccc(C(c2ccccc2)N2CCN(CCCSc3ccc4nncn4n3)CC2)cc1 |
| 119 to 120 °C | O=C(c1ccccc1)[C@@]1([N+](=O)[O-])[C@@H]2C=C[C@@H](C2)[C@H]1c1ccccc1 (relative stereo) |
| 183 to 185 °C | Cc1nc2cnc3ccccc3c2n1Cc1ccc(Cl)cc1 |
| 186 to 188 °C | CCOCc1nc2c(N)nc3cc(Br)ccc3c2n1CC1CCOCC1 |
| 174 to 176 °C | O=S(=O)(NCc1ccncc1)c1ccc(I)cc1 |
| 149 to 150 °C | CCOc1cc(C(=O)O)cc(S(N)(=O)=O)c1-c1ccccc1 |
| 300 to 305 °C | O=C(O)C(=O)Nc1ccc2c(=O)c3c(oc2c1)C(=Cc1ccc2c(c1)OCO2)CC3 |
| 176 °C | O=C(c1ccc(Cl)cc1)c1cc(-c2ccncc2)c(N2CCOCC2)s1 |
| 58 to 60 °C | OC1CCCc2sccc21 (stereo not drawn) |
| 153 to 155 °C | CC(C)CC(SCc1ccccc1)c1c(O)cc(-c2ccccc2)oc1=O (stereo not drawn) |
| 200 °C | CN(c1ccnc(C(N)=O)c1)c1ccccc1C(=O)Nc1cc2ccccc2cn1 |
| 204 to 205 °C | O=C(O)CCc1oc(-n2ncc3ccccc32)nc1-c1ccc(Cl)cc1 |
| 162 to 163 °C | CCc1nnc(-c2ccc(-c3ccccc3)nc2)n1-c1cccc(C(N)=O)c1C |

| SMILES | melting point |
| --- | --- |
| CNCCCOc1cc(F)c(-c2c(Cl)nc(-c3cnccn3)nc2N[C@@H](C)C(F)(F)F)c(F)c1 | 48 to 50 °C |
| CC1CC2(CC3CCC4C5CCC(=O)C5(C)CCC4C13C)OCCO2 (stereo not drawn) | 154 °C |
| CCOP(=S)(OCC)ON=C1C=CC(=C(C#N)c2ccccc2)C=C1 | 66 to 82 °C |
